Measured values taken from article PMC12518639, “Apomorphine is a novel necroptosis inhibitor targeting mixed lineage kinase domain-like protein oligomerization” (Cell Death Discovery, 2025).
Counter-ions that a name gives are not always drawn. Like-named read-outs stand apart in the source and are kept apart here. Where a SMILES comes first, the peptide text is derived from it. The star is where a group is joined. Cbz = O=C(OCc1ccccc1)*

Test system: THP-1-HMGB1-Lucia cells
Experiment: TBZ-induced necroptosis screening by HMGB1-luciferase release
Type: cell-based, human
Details: 8 h, read-out: % Inhibition (luciferase activity relative to TBZ-treated supernatant); for activity at 20 µM: Homo sapiens
Protocol: To identify potential inhibitors of the necroptosis pathway targeting MLKL or the process of p-MLKL pore formation on the membrane, we screened a library of 2150 compounds, including FDA-approved drugs and those in phase 1–3 clinical trials, using THP-1-HMGB1-Lucia™ cells expressing the HMGB1-luciferase fusion protein. The cells were treated with a necroptosis-inducing mixture containing TNF-α, BV6, and Z-VAD-FMK (TBZ) in addition to the compound library (Fig. 1A). The supernatants were harvested to measure luciferase activities for necroptosis. The luciferase activities of cell supernatants treated with TBZ alone were considered as the maximum release (100%) of HMGB1-luciferase. NEC-1, a known RIP1 inhibitor used in both humans and mice, was used as a positive control. […] Next, we performed a propidium iodide (PI) uptake assay to exclude cytotoxic compounds using THP-1 cells. Then, we selected candidate molecules that were arbitrarily less than 30% of those treated with TBZ. […] Next, the inhibition levels of p-MLKL were tested to select MLKL-targeting molecules (Figs. 1C and S1A). Compounds that reduced p-MLKL levels to less than 30% of TBZ-treated controls were considered as potential inhibitors of MLKL phosphorylation. Conversely, compounds that maintained p-MLKL levels above 70% were selected because they are presumed to prevent the formation of pores in the plasma membrane by interfering with oligomerization.
A clinical chemical library containing 2150 items (Korea Chemical Bank, South Korea), under phase 1–3 clinical trials, including FDA-approved drugs, was used to screen for necroptosis inhibitors. Each chemical was dissolved in DMSO and diluted to 20 μM in DPBS for treatment.
THP-1-HMGB1-Lucia^TM cells were pretreated with the pan-caspase inhibitor Z-VAD-FMK (50 μM, tlrl-vad, InvivoGen) and each chemical for 1 h, and followed by TNF-α (100 ng/mL, TNF0501, NKMAXBio, Seongnam, S. Korea) and Smac mimetic BV6 (10 μM, B1332-5, Biovision, Santa Clara, CA, USA), termed TBZ mixture, were added for necroptosis screening. The RIP1 inhibitor, NEC-1 (1846, Biovision), and MLKL inhibitor, NSA (432531-71-0, Sigma-Aldrich, St. Louis, MO, USA), were used as controls. The cell supernatant was harvested to measure HMGB1 levels using a luciferase assay kit (E1500, Promega, Madison, WI, USA) by a luminometer (Centro XS3 LB 960, Berthold Technologies, Bad Wildbad, Germany). The inhibition of necroptosis (%) was calculated as: (sample-treated data – medium-only data) × 100/(TBZ-treated data – medium-only data). APO [STK088477, (6aS)-6-methyl-5,6,6a,7-tetrahydro-4H-dibenzo[de,g]quinoline-10,11-diol, Vitas-M Laboratory, Hong Kong] was stored at −70 °C after aliquoting with DMSO. APO was used after dilution in DPBS. APO is susceptible to auto-oxidation in solution in the presence of light and air. DPBS containing 5 mM DTT was used for Re-APO. Ox-APO was prepared by incubating APO in DPBS at 25 °C for 24 h in the presence of light and air, followed by removal of any precipitate by filtration through 0.2 μm.

[1] = 20 μM compound with TBZ, TBZ alone = 100, DPBS = 0

SMILES	activity [1] [%]	activity at 20 µM [1] [%]	also measured
CN1C(=O)C(Cc2c[nH]c3ccccc23)NC1=S (stereo not drawn) [Necrostatin-1]	1.2		
O=c1ncn2nc(Sc3ccc(F)cc3F)ccc2c1-c1c(Cl)cccc1Cl [S2, Neflamapimod]		6.8	
CCc1c(Cl)c(O)c(Cl)c(O)c1C(=O)O[C@H]1[C@H](O)[C@H](OC)[C@H](OC/C2=C\C=C\C[C@H](O)/C(C)=C/[C@H](CC)[C@@H](O[C@@H]3OC(C)(C)[C@@H](OC(=O)C(C)C)[C@H](O)[C@@H]3O)/C(C)=C/C(C)=C/C[C@@H]([C@@H](C)O)OC2=O)O[C@@H]1C [S5, Fidaxomicin]		5.9	
CC(C)C[C@@H](C=O)NC(=O)[C@H](CC(C)C)NC(=O)[C@H](CC(C)C)NC(=O)OCc1ccccc1 [S6, Z-Leu-Leu-Leu-al] (Cbz-Leu-Leu-Leu-aldehyde)	7.5		
O=C(Nc1ccc(S(=O)(=O)C(F)(F)F)cc1)C1=CCN(c2ncccc2C(F)(F)F)CC1 [S7, A 784168]	4.2		
COC(=O)[C@]12CCC(C)(C)C[C@H]1[C@H]1C(=O)C=C3[C@@]4(C)C=C(C#N)C(=O)C(C)(C)[C@@H]4CC[C@@]3(C)[C@]1(C)CC2 [S8, Bardoxolone methyl]		0	
CO[C@H]1C[C@@H]2CC[C@@H](C)[C@@](O)(O2)C(=O)C(=O)N2CCCC[C@H]2C(=O)O[C@H]([C@H](C)C[C@@H]2CC[C@@H](OC(=O)C(C)(CO)CO)[C@H](OC)C2)CC(=O)[C@H](C)/C=C(\C)[C@@H](O)[C@@H](OC)C(=O)[C@H](C)C[C@H](C)/C=C/C=C/C=C/1C [S9, Temsirolimus]		19	
COc1ccc(CNc2nc(N(CCO)CCO)nc3c2ncn3C(C)C)cc1 [S12, CVT-313]	4.7		
CC[C@H]1CN2CCc3cc(OC)c(OC)cc3[C@@H]2C[C@@H]1C[C@H]1NCCc2cc(OC)c(OC)cc21 [S13, Emetine dihydrochloride]		3.3	
COc1cc2nccc(Oc3ccc(NC(=O)C4(C(=O)Nc5ccc(F)cc5)CC4)cc3)c2cc1OC [S14, Cabozantinib]		0.7	
Cc1ccc(F)c(NC(=O)Nc2ccc(-c3cccc4[nH]nc(N)c34)cc2)c1 [S20, Linifanib]		0	
CC(=O)c1ccc(NC2=C(Cl)C(=O)c3ccccc3C2=O)cc1 [S21, NQ301]	4.1		
CN1CCN(c2nc(C3=C(c4c[nH]c5ccccc45)C(=O)NC3=O)c3ccccc3n2)CC1 [S22, Sotrastaurin]		4.7	
CC(C)CN(C[C@@H](O)[C@H](Cc1ccccc1)NC(=O)O[C@H]1CO[C@H]2OCC[C@H]21)S(=O)(=O)c1ccc(N)cc1 [S23, Prezista]			activity at 20 µM: 11.2%
CC(=O)[C@@]1(O)CC[C@H]2[C@@H]3CCC4=CC(=O)CCC4=C3[C@@H](c3ccc(N(C)C)cc3)C[C@@]21C [S24, Ulipristal]		14	
C=C(CC)C(=O)c1ccc(OCC(=O)O)c(Cl)c1Cl [S26, Ethacrynic acid]		3	
CC(C)c1onc(-c2c(Cl)cccc2Cl)c1COc1ccc(/C=C/c2cccc(C(=O)O)c2)c(Cl)c1 [S27, GW4064]	9.2		
COc1ccc(C(c2c(O)c3ccccc3oc2=O)c2c(O)c3ccccc3oc2=O)cc1CSc1ccccn1 [S29, STK529529]	2.8		
CCCS(=O)(=O)Nc1ccc(F)c(C(=O)c2c[nH]c3ncc(-c4ccc(Cl)cc4)cc23)c1F [S30, Vemurafenib]		6.4	
Cc1ccccc1N(C)C(=O)c1ccc([S+]([O-])c2nccs2)c([N+](=O)[O-])c1 (stereo not drawn) [S32, SB 268262]	0		
COc1ccc(C(c2c(O)c3ccccc3oc2=O)c2c(O)c3ccccc3oc2=O)cc1Cn1nc(C)c([N+](=O)[O-])c1C [S33, STK528708]	0.1		
COc1ccc(CNC(=O)Nc2ncc([N+](=O)[O-])s2)cc1 [S36, AR-A014418]	10.8		
CC1(C)CNc2cc(NC(=O)c3cccnc3NCc3ccncc3)ccc21 [S37, Motesanib]		9.4	
O=C(NC1CCNCC1)c1[nH]ncc1NC(=O)c1c(Cl)cccc1Cl [S39, AT7519]		19.5	

SMILES	activity [1] [%]	activity at 20 µM [1] [%]	also measured
O=C(O)Cc1cccc(OCCCN(Cc2cccc(C(F)(F)F)c2Cl)CC(c2ccccc2)c2ccccc2)c1 [S40, GW3965]		11.6	
Cc1cc(SCc2sc(-c3ccc(C(F)(F)F)cc3)nc2C)ccc1OCC(=O)O [S41, GW 501516]		9.1	
CNCc1ccc(-c2[nH]c3cc(F)cc4c3c2CCNC4=O)cc1 [S42, Rucaparib]		9.1	
N#CC1(c2ccc(NC(=O)c3cccnc3NCc3ccncc3)cc2)CCCC1 [S43, Apatinib]		3.4	
CC(C)[C@H](CO)Nc1nc(Nc2cccc(Cl)c2)c2ncn(C(C)C)c2n1 [S44, Purvalanol A]		3.8	
O=c1[nH]c2ccc(Cl)cc2c(N[C@@H]2CN3CCC2CC3)c1-c1nc2ccccc2[nH]1 [S45, CHIR 124]	6.5		
Nc1ncnc2c1c(I)cn2[C@@H]1O[C@H](CO)[C@@H](O)[C@H]1O [S47, 5-Iodotubercidin]	4.9		
C[C@@H]1O[C@@H](O[C@@H]2C=C3CC[C@@H]4[C@H](CC[C@]5(C)[C@@H](c6ccc(=O)oc6)CC[C@]45O)[C@@]3(C)CC2)[C@H](O)[C@H](O)[C@H]1O [S48, Proscillaridin]			activity at 20 µM: 6.8%
O=C1/C(=C/c2ccccc2F)CNC/C1=C\c1ccccc1F [S49, EF-24]	10.2		
O=C(Nc1cccc2c(=O)cc(-c3nnn[nH]3)oc12)c1ccc(OCCCCc2ccccc2)cc1 [S50, Pranlukast]		10.9	
Cc1ccc(-n2nc(C(C)(C)C)cc2NC(=O)Nc2ccc(OCCN3CCOCC3)c3ccccc23)cc1 [S51, Doramapimod]		3.9	
O=S(=O)(c1ccccc1)N(CC(F)(F)F)c1ccc(C(O)(C(F)(F)F)C(F)(F)F)cc1 [S52, T0901317]	7.2		
C#C[C@]1(O)CC[C@H]2[C@@H]3CCc4cc(OC5CCCC5)ccc4[C@H]3CC[C@@]21C [S54, Quinestrol]		8.2	
Nc1ccc2cc3ccc(N)cc3nc2c1 [S55, Proflavine hemisulfate]		3.5	
CO[C@H]1C[C@@H]2CC[C@@H](C)[C@@](O)(O2)C(=O)C(=O)N2CCCC[C@H]2C(=O)O[C@H]([C@H](C)C[C@@H]2CC[C@@H](O)[C@H](OC)C2)CC(=O)[C@H](C)/C=C(\C)[C@@H](O)[C@@H](OC)C(=O)[C@H](C)C[C@H](C)/C=C/C=C/C=C/1C [S56, Sirolimus]		0.3	
COc1cccc2c1C(=O)c1c(O)c3c(c(O)c1C2=O)C[C@@](O)(C(=O)CO)C[C@@H]3O[C@H]1C[C@H](N)[C@H](O[C@@H]2CCCCO2)[C@H](C)O1 [S57, Pirarubicin]		6.4	
NC(CO)(CO)CO [S59, Trometamol]		11	
COC(=O)C1=C(C)NC(C)=C(C(=O)OCCN(C)Cc2ccccc2)C1c1cccc([N+](=O)[O-])c1 (stereo not drawn) [S60, Nicardipine hydrochloride]		3.8	
COc1cccc2c1C(=O)c1c(O)c3c(c(O)c1C2=O)C[C@@](O)(C(C)=O)C[C@@H]3O[C@H]1C[C@H](N)[C@H](O)[C@H](C)O1 [S61, Daunorubicin]			activity at 20 µM: 6%
COCCOC(=O)C1=C(C)NC(C)=C(C(=O)OC/C=C/c2ccccc2)C1c1cccc([N+](=O)[O-])c1 (stereo not drawn) [S63, Cilnidipine]		11	
COc1ccc(CN2CCN(C(c3ccc(F)cc3)c3ccc(F)cc3)CC2)c(OC)c1OC [S64, Lomerizine hydrochloride]	5.3		
CC[C@@]1(O)C(=O)OCc2c1cc1n(c2=O)Cc2cc3c(CN(C)C)c(O)ccc3nc2-1 [S65, Topotecan hydrochloride]		5.2	
COc1cccc2c1C(=O)c1c(O)c3c(c(O)c1C2=O)C[C@@](O)(C(=O)CO)C[C@@H]3O[C@H]1C[C@H](N)[C@H](O)[C@H](C)O1 [S66, Doxorubicin]		8.6	
O=S(=O)(c1cccc2cnccc12)N1CCCNCC1 [S68, Fasudil hydrochloride]		6	
